Assay results: patent US7632783B2 (priority 2004, dated 2009)

How the values were obtained:
[1] = tested on: rice blast (Pyricularia oryzae); format: in vivo; settings: potted rice (variety Karakaze), spraying liquid 300 ppm after spore inoculation, observed 7 days after inoculation, levels 0 to 3
[2] = tested on: gray mold (Botrytis cinerea); experiment: Tomato gray mold control test (preventive effects); format: in vivo; settings: potted tomato (giant Fukuju variety), spraying liquid 300 ppm before spore inoculation, investigated 2 days after inoculation, levels 0 to 3
Method: Bulk drug was dissolved in a mixed solution of dimethylsulfoxide and methanol (volume ratio: 7/3), and spraying liquids containing 300 ppm of compounds of the present invention were uniformly sprayed onto potted test plants (tomato: giant Fukuju variety) in the second to third leaf stage. […], a suspension of pathogen spores were inoculated by spraying onto the pots in an inoculation room at a room temperature of 20 to 23° C. to promote the onset of disease. The degree of disease onset was investigated 2 days after inoculation. The test was carried out in duplicate.
Furthermore, the degree of disease onset was evaluated to one of four levels from 0 to 3 according to the criteria below by macroscopically observing the degree of disease onset of the test plants.
1: Degree of disease onset less than 40% of the untreated area
2: Degree of disease onset 40% to less than 80% of the untreated area
3: Degree of disease onset 80% or more

SMILES | melting point [°C] | degree of disease onset [1] | degree of disease onset [2]
CC1(C)Cc2c(F)cccc2C(C)(c2cnc3ccccc3c2)N1 (centres unmarked) | 148 to 150 |  | 
CC1(C)Cc2c(Cl)cccc2C(C)(c2cnc3ccccc3c2)N1 (centres unmarked) | 142 to 144 |  | 
CC1(C)Cc2c(C(N)=O)cccc2C(c2cnc3ccccc3c2)=N1 | 236 to 240 |  | 
CC1(C)N=C(c2cnc3ccccc3c2)c2cccc(F)c2C1O (centres unmarked) | 225 to 226 |  | 
CC1(C)N=C(c2cnc3ccccc3c2)c2ccccc2C1=O | 137 |  | 
CC1(C)NC(c2cnc3ccccc3c2)c2cccc(F)c2C1=O (centres unmarked) | 228 to 229 |  | 
CC1(C)N=C(c2cnc3ccccc3c2)c2cc(Br)ccc2C1(F)F | 123 to 125 |  | 
CC1(C)Cc2c(cccc2-c2cnco2)C(c2cnc3ccccc3c2)=N1 | 175 to 179 |  | 
CN1C(c2cnc3ccccc3c2)c2ccccc2CC1(C)C (centres unmarked) | 116 to 118 |  | 
CC1(C)Cc2ccccc2C(c2cnc3ccccc3c2)N1 (centres unmarked) [Example 4, 3-(3,3-dimethyl-1,2,3,4-tetrahydroisoquinolin-1-yl)quinoline] | 117 to 122 | 0 | 
CC1(Cc2ccccc2)Cc2ccccc2C(c2cnc3ccccc3c2)=N1 (centres unmarked) [Example 79, 3-(3-Benzyl-3-methyl-3,4-dihydroisoquinolin-1-yl)quinoline] |  | 0 | 0
CC1(C)Cc2c(F)cccc2C(c2cnc3ccccc3c2)=N1.Cl [Example 103, 3-(5-fluoro-3,3-dimethyl-3,4-dihydroisoquinolin-1-yl)quinoline hydrochloride] |  | 0 | 0
CC1(C)Cc2c(F)cccc2C(c2cnc3ccccc3c2)=N1.CS(=O)(=O)O [Example 107, 3-(5-fluoro-3,3-dimethyl-3,4-dihydroisoquinolin-1-yl)quinoline methanesulfonate] |  | 0 | 0
CC1(C)Cc2c(F)cccc2C(c2cnc3ccccc3c2)=N1.O=C(O)/C=C/C(=O)O [Example 109, 3-(5-fluoro-3,3-dimethyl-3,4-dihydroisoquinolin-1-yl)quinoline fumarate] |  | 0 | 0
CC1(C)N=C(c2cnc3ccccc3c2)c2cccc(F)c2C1(C)C [Example 114, 3-(5-fluoro-3,3,4,4-tetramethyl-3,4-dihydroisoquinolin-1-yl)quinoline] |  | 0 | 0
CC1c2c(F)cccc2C(c2cnc3ccccc3c2)NC1(C)C (centres unmarked) [Example 124, 3-(5-fluoro-3,3,4-trimethyl-1,2,3,4-tetrahydroisoquinoline-1-yl)quinoline] | 133 to 134 | 0 | 
CC1(C)NC(c2cnc3ccccc3c2)c2cccc(F)c2C1(C)C (centres unmarked) [Example 125, 3-(5-fluoro-3,3,4,4-tetramethyl-1,2,3,4-tetrahydroisoquinoline-1-yl)quinoline] | 179 to 181 | 0 | 
CC1(C)N=C(c2cnc3ccccc3c2)c2cccc(F)c2C1(C)C.Cl [Example 156, 3-(5-fluoro-3,3,4,4-tetramethyl-3,4-dihydroisoquinolin-1-yl)quinoline hydrochloride] |  | 0 | 0
CC1(C)N=C(c2cnc3ccccc3c2)c2cccc(F)c2C1(C)C.O=[N+]([O-])O [Example 158, 3-(5-fluoro-3,3,4,4-tetramethyl-3,4-dihydroisoquinolin-1-yl)quinoline nitrate] |  | 0 | 0
CC1(C)N=C(c2cnc3ccc(F)cc3c2)c2cccc(F)c2C1(C)C [Example 163, 3-(5-fluoro-3,3,4,4-tetramethyl-3,4-dihydroisoquinolin-1-yl)-6-fluoroquinoline] |  | 0 | 0

SMILES | melting point [°C] | degree of disease onset [1] | degree of disease onset [2]
CC1(C)N=C(c2cnc3c(F)cccc3c2)c2cccc(F)c2C1(C)C [Example 164, 3-(5-fluoro-3,3,4,4-tetramethyl-3,4-dihydroisoquinolin-1-yl)-8-fluoroquinoline] |  | 0 | 0
Cc1cccc2cc(C3=NC(C)(C)C(C)(C)c4c(F)cccc43)cnc12 [Example 165, 3-(5-fluoro-3,3,4,4-tetramethyl-3,4-dihydroisoquinolin-1-yl)-8-methylquinoline] |  | 0 | 0
CC1(C)N=C(c2cnc3ccccc3c2)c2cccc(F)c2C1F (centres unmarked) [Example 174, 3-(4,5-difluoro-3,3-dimethyl-3,4-dihydroisoquinolin-1-yl)quinoline] |  | 0 | 0
CC1(C)N=C(c2cnc3ccccc3c2)c2ccccc2C1(F)F [Example 177, 3-(4,4-difluoro-3,3-dimethyl-3,4-dihydroisoquinolin-1-yl)quinoline] |  | 0 | 0
CC1(C)N=C(c2cnc3ccccc3c2)c2cccc(F)c2C1(F)F [Example 178, 3-(4,4,5-trifluoro-3,3-dimethyl-3,4-dihydroisoquinolin-1-yl)quinoline] |  | 0 | 0
CCOC1(C)c2c(F)cccc2C(c2cnc3ccccc3c2)=NC1(C)C (centres unmarked) [Example 184, 3-(4-ethoxy-5-fluoro-3,3,4-trimethyl-3,4-dihydroisoquinolin-1-yl)quinoline] | 118 to 119 | 0 | 
CCC1(OC)c2c(F)cccc2C(c2cnc3ccccc3c2)=NC1(C)C (centres unmarked) [Example 185, 3-(4-ethyl-5-fluoro-4-methoxy-3,3-dimethyl-3,4-dihydroisoquinolin-1-yl)quinoline] | 145 to 147 | 0 | 
CC1(C)c2c(F)cccc2C2(c3cnc4ccccc4c3)ON2C1(C)C (centres unmarked) [Example 193, 5-fluoro-3,3,4,4-tetramethyl-8b-quinolin-3-yl-4,8b-dihydro-3H-oxazileno[3,2-a]isoquinoline] |  | 0 | 0
CC1(C)c2ccccc2C2(c3cnc4ccccc4c3)ON2C1(C)C (centres unmarked) [Example 196, 3,3,4,4-tetramethyl-8b-quinolin-3-yl-4,8b-dihydro-3H-oxazileno[3,2-a]isoquinoline] |  | 0 | 0
CC1(C)Cc2c(F)cccc2C2(c3cnc4ccccc4c3)ON12 (centres unmarked) [Example 197, 5-fluoro-3,3-dimethyl-8b-quinolin-3-yl-4,8b-dihydro-3H-oxazileno[3,2-a]isoquinoline] |  | 0 | 0
CC1(C)c2cc(F)ccc2C2(c3cnc4ccccc4c3)ON2C1(C)C (centres unmarked) [Example 199, 6-fluoro-3,3,4,4-tetramethyl-8b-quinolin-3-yl-4,8b-dihydro-3H-oxazileno[3,2-a]isoquinoline] |  | 0 | 0
CC1(C)c2ccccc2C2(c3cnc4ccccc4c3)ON2C12CCCC2 (centres unmarked) [Example 202, 4′,4′-dimethyl-8b′-quinolin-3-yl-4′,8b′-dihydrospiro[cyclopentane-1,3′-oxazileno[3,2-a]isoquinoline]] |  | 0 | 0
CC1(C)N2OC2(c2cnc3ccccc3c2)c2cccc(F)c2C1(F)F (centres unmarked) [Example 203, 4,4,5-trifluoro-3,3-dimethyl-8b-quinolin-3-yl-4,8b-dihydro-3H-oxazileno[3,2-a]isoquinoline] |  | 0 | 0
CC1(C)c2c(F)cccc2C(c2cnc3ccccc3c2)=[N+]([O-])C1(C)C [Example 204, 3-(5-fluoro-3,3,4,4-tetramethyl-2-oxide-3,4-dihydroisoquinolin-1-yl)quinoline] |  | 0 | 0
CC1(C)c2ccccc2C(c2cnc3ccccc3c2)=[N+]([O-])C1(C)C [Example 207, 3-(3,3,4,4-tetramethyl-2-oxide-3,4-dihydroisoquinolin-1-yl)quinoline] |  | 0 | 0
CC1(C)c2cc(F)ccc2C(c2cnc3ccccc3c2)=[N+]([O-])C1(C)C [Example 209, 3-(6-fluoro-3,3,4,4-tetramethyl-2-oxide-3,4-dihydroisoquinolin-1-yl)quinoline] |  | 0 | 0
CC1(C)c2cc(Cl)ccc2C(c2cnc3ccccc3c2)=[N+]([O-])C1(C)C [Example 211, 3-(6-chloro-3,3,4,4-tetramethyl-2-oxide-3,4-dihydroisoquinolin-1-yl)quinoline] |  | 0 | 0
CC1(C)c2ccccc2C(c2cnc3ccccc3c2)=[N+]([O-])C12CCCCC2 [Example 217] |  | 0 | 0
CC1(C)[N+]([O-])=C(c2cnc3ccccc3c2)c2ccccc2C1(F)F [Example 218, 3-(4,4-difluoro-3,3-dimethyl-2-oxide-3,4-dihydroisoquinolin-1-yl)quinoline] |  | 0 | 0
CC1(C)[N+]([O-])=C(c2cnc3ccccc3c2)c2cccc(F)c2C1(F)F [Example 219, 3-(4,4,5-trifluoro-3,3-dimethyl-2-oxide-3,4-dihydroisoquinolin-1-yl)quinoline] |  | 0 | 0
